Source: ChEMBL document CHEMBL1137458, “Discovery of novel and orally active NR2B-selective N-methyl-D-aspartate (NMDA) antagonists, pyridinol derivatives with reduced HERG binding affinity” (Bioorg Med Chem Lett, 2007)
≈ marks a conversion by molar mass, not a printed value.

Legend:
[1] = Solubility at pH 6.5; type: physicochemical; details: buffer
[2] = molecular target: Glutamate receptor ionotropic, NMDA 2B (Rattus norvegicus, UniProt Q00960); experiment: Displacement of [3H]CP-101606 from NR2B in rat forebrain P2 membrane; type: cell membranes, Brain
Sequence of Glutamate receptor ionotropic, NMDA 2B (Q00960 whole entry): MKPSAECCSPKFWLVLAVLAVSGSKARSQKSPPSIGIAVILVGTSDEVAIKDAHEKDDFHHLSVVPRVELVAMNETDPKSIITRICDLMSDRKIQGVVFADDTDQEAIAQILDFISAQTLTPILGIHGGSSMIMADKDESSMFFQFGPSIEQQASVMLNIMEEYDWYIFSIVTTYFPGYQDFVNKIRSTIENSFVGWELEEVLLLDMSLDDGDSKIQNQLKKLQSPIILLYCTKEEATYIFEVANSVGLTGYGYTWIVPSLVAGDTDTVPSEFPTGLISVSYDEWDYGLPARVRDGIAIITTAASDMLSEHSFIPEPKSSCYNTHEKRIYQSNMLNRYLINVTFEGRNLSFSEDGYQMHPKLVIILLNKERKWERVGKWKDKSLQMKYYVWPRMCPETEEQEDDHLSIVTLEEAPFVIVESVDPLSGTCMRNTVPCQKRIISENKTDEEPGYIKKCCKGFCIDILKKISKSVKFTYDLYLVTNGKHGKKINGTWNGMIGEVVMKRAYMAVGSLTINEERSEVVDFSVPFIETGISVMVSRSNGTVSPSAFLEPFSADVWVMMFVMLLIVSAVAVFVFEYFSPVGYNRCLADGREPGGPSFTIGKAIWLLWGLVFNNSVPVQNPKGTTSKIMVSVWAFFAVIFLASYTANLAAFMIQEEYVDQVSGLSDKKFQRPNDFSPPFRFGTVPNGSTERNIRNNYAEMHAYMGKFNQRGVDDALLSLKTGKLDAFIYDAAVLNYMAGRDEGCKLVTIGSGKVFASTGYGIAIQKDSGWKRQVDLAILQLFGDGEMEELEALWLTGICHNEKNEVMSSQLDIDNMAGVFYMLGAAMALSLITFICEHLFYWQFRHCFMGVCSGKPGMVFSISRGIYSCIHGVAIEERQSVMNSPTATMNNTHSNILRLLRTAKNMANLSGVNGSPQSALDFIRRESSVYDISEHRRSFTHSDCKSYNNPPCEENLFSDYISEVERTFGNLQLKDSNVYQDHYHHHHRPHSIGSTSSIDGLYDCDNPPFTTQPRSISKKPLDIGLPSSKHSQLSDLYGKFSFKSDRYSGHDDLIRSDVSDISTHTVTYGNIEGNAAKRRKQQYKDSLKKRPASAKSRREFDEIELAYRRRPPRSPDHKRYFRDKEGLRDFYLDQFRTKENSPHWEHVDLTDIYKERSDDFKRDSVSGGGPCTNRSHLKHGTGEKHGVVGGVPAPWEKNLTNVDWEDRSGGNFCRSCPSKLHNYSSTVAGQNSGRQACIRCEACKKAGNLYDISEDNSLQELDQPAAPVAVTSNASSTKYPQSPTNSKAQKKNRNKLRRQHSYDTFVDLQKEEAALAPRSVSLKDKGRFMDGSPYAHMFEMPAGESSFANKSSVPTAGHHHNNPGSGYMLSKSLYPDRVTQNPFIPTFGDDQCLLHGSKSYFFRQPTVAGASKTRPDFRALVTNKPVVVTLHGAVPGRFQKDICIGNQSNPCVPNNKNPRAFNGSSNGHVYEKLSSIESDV

[3] = molecular target: Voltage-gated inwardly rectifying potassium channel KCNH2 (Homo sapiens, UniProt Q12809); experiment: Displacement of [3H]dofetilide from human HERG expressed in HEK293 cells; type: cell-based
Sequence of Voltage-gated inwardly rectifying potassium channel KCNH2 (Q12809 whole entry): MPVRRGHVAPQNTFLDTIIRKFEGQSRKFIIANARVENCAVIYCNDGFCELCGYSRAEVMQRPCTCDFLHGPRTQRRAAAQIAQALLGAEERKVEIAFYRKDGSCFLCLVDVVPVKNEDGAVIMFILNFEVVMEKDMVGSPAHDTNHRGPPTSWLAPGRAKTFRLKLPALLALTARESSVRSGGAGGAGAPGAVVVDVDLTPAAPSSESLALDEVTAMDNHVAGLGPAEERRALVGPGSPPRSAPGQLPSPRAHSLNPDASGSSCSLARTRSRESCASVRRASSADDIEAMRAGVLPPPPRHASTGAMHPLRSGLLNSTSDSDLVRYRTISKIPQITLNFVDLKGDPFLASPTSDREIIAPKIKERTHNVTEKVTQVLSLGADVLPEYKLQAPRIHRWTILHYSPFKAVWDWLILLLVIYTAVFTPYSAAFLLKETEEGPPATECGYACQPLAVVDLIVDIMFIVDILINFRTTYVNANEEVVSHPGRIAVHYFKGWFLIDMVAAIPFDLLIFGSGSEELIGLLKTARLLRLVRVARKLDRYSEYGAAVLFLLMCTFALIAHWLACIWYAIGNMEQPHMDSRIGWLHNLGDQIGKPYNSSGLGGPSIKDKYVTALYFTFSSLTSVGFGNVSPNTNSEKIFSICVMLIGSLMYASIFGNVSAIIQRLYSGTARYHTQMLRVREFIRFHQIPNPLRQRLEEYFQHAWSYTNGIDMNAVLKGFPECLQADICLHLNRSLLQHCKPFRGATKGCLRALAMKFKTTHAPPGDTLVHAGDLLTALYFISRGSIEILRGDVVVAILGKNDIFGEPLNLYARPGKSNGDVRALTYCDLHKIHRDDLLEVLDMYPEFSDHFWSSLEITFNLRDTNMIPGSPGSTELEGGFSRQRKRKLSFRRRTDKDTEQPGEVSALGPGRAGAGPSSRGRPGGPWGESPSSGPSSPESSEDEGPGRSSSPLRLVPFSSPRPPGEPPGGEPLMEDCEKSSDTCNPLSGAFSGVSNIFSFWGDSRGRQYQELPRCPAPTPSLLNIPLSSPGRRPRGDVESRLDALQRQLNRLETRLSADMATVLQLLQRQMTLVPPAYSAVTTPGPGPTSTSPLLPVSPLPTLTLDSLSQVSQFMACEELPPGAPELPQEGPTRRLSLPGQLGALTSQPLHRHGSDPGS

[4] = Bioavailability in mouse; type: ADME, organism-based; details: in vivo
Mus musculus = experiment: Antiallodynic activity in po dosed mouse partial sciatic nerve ligation model; type: functional
hERG (KCNH2) = hERG (KCNH2) (Homo sapiens, UniProt Q12809); experiment: Inhibition of HERG current at 30 uM
Sequence of hERG (KCNH2) (Q12809 whole entry): as above

[5] = Metabolic stability assessed Half life in human liver microsomes; type: ADME, Microsome

SMILES	IC50 [2] [nM]	IC50 [3] [µM]	also measured
O=C(CCc1ccccc1)N[C@H]1CC[C@H](c2ccc(O)cc2)CC1	30		solubility [1]: < 5 µg/mL
Cn1c(CCC(=O)N[C@H]2CC[C@H](c3ccc(O)cc3)CC2)nc2ccccc21	> 1000		
O=C(CCc1ccccc1)N[C@H]1CC[C@](O)(c2c[nH]cn2)CC1	> 5000		
Cc1cnc(CCC(=O)N[C@H]2CC[C@H](c3ccc(O)cc3)CC2)s1	96	> 10	
O=C(CCc1ccccc1)N[C@H]1CC[C@H](c2ccc(O)c(F)c2)CC1	59		IC50 ([3]; hek293): > 10 µM
C[C@@H]([C@@H](O)c1ccc(O)cc1)N1CCC(Cc2ccccc2)CC1 [(S)-IFENPRODIL]		< 1	
O=C1CC(Cc2ccccc2)CCN1CC(O)c1ccc(O)cc1 (stereo not drawn)		> 30	
CN(C)C(Cc1ccccc1)C(=O)N[C@H]1CC[C@H](c2ccc(O)cc2)CC1 (stereo partly drawn)	> 1000		
Cc1cc(O)ccc1[C@]1(O)CC[C@@H](NC(=O)CCc2ccccc2)CC1	25		IC50 ([3]; hek293): > 10 µM
O=C(CCc1ccccc1)N[C@H]1CC[C@](O)(c2ccc3nc[nH]c3c2)CC1	4960		
CS(=O)(=O)Nc1ccc([C@]2(O)CC[C@@H](NC(=O)CCc3ccccc3)CC2)cn1	> 5000		
O=C1CCc2cc([C@@H](O)CN3CCC(O)(c4cccc(F)c4)CC3)ccc2N1		1.1	
O=C(CCc1ccccc1)N[C@H]1CC[C@](O)(c2ccc(O)cc2)CC1	19	> 30	solubility [1]: 20 µg/mL (≈ 58.9 µM)
O=C(CCc1ccccc1)N[C@H]1CC[C@](O)(c2c[nH]c3nc(=O)oc-3c2)CC1	85		
Cc1cc([C@]2(O)CC[C@@H](NC(=O)CCc3ccccc3)CC2)ncc1O	116		
O=C(N[C@H]1CC[C@H](c2ccc(O)cc2)CC1)C1Cc2ccccc2CN1 (stereo partly drawn)	> 1000	> 30	solubility [1]: 18 µg/mL (≈ 51.4 µM)
Cc1cc([C@]2(O)CC[C@@H](NC(=O)CCc3ccccc3)CC2)ccc1O	189		solubility [1]: < 5 µg/mL; IC50 ([3]; hek293): > 10 µM
O=C(CCc1cccnc1)N[C@H]1CC[C@H](c2ccc(O)cc2)CC1	> 1000		
Nc1ccc([C@]2(O)CC[C@@H](NC(=O)CCc3ccccc3)CC2)cn1	> 5000		
O=C(CCc1ccccc1)N[C@H]1CC[C@](O)(c2ccc(O)c(F)c2)CC1	13		solubility [1]: 17 µg/mL (≈ 47.6 µM)
Cc1cc([C@H]2CC[C@H](NC(=O)CCc3ccccc3)CC2)ccc1O	> 5000		
Cc1cc(O)ccc1[C@H]1CC[C@H](NC(=O)CCc2ccccc2)CC1	722		
O=C(CCc1ccccn1)N[C@H]1CC[C@H](c2ccc(O)cc2)CC1	856	> 30	
O=C(CCc1ccccc1)N[C@H]1CC[C@](O)(c2ccc(O)cn2)CC1	10	> 30	solubility [1]: 130 µg/mL (≈ 382 µM); bioavailability [4]: 27%; MED (Mus musculus): 10 mg/kg; inhibition at 30 µM (hERG (KCNH2)): 9%; half-life [5]: > 60 min
O=C(CCc1ccccc1)N[C@H]1CC[C@](O)(c2cn[nH]c2)CC1	2440		
